In ChEMBL document CHEMBL5634117 (Eur J Med Chem, 2023):

Experiments:
M14 = assay: Growth inhibition of human M14 cells assessed as reduction in cell viability measured after 48 hrs by SRB assay; assay type: functional
NCI-H322M = assay: Growth inhibition of human NCI-H322M cells assessed as reduction in cell viability measured after 48 hrs by SRB assay; assay type: functional
SW-620 = assay: Growth inhibition of human SW620 cells assessed as reduction in cell viability measured after 48 hrs by SRB assay; assay type: functional
RXF 393 = assay: Growth inhibition of human RXF 393 cells assessed as reduction in cell viability measured after 48 hrs by SRB assay; assay type: functional
KM12 = assay: Growth inhibition of human KM12 cells assessed as reduction in cell viability measured after 48 hrs by SRB assay; assay type: functional
ACHN = assay: Growth inhibition of human ACHN cells assessed as reduction in cell viability measured after 48 hrs by SRB assay; assay type: functional
MDA-MB-468 = assay: Growth inhibition of human MDA-MB-468 cells assessed as reduction in cell viability measured after 48 hrs by SRB assay; assay type: functional
OVCAR-4 = assay: Growth inhibition of human OVCAR-4 cells assessed as reduction in cell viability measured after 48 hrs by SRB assay; assay type: functional
HL-60(TB) = assay: Growth inhibition of human HL-60(TB) cells assessed as reduction in cell viability measured after 48 hrs by SRB assay; assay type: functional
CCRF-CEM = assay: Growth inhibition of human CCRF-CEM cells assessed as reduction in cell viability measured after 48 hrs by SRB assay; assay type: functional
UO-31 = assay: Growth inhibition of human UO-31 cells assessed as reduction in cell viability measured after 48 hrs by SRB assay; assay type: functional
SN12C = assay: Growth inhibition of human SN12C cells assessed as reduction in cell viability measured after 48 hrs by SRB assay; assay type: functional
SR = assay: Growth inhibition of human SR cells assessed as reduction in cell viability measured after 48 hrs by SRB assay; assay type: functional
K562 = assay: Growth inhibition of human K562 cells assessed as reduction in cell viability measured after 48 hrs by SRB assay; assay type: functional
786-0 = assay: Growth inhibition of human 786-0 cells assessed as reduction in cell viability measured after 48 hrs by SRB assay; assay type: functional
Hs-578T = assay: Growth inhibition of human Hs-578T cells assessed as reduction in cell viability measured after 48 hrs by SRB assay; assay type: functional
SF-268 = assay: Growth inhibition of human SF-268 cells assessed as reduction in cell viability measured after 48 hrs by SRB assay; assay type: functional
HCC 2998 = assay: Growth inhibition of human HCC 2998 cells assessed as reduction in cell viability measured after 48 hrs by SRB assay; assay type: functional
HT-29 = assay: Growth inhibition of human HT-29 cells assessed as reduction in cell viability measured after 48 hrs by SRB assay; assay type: functional
OVCAR-8 = assay: Growth inhibition of human OVCAR-8 cells assessed as reduction in cell viability measured after 48 hrs by SRB assay; assay type: functional
A549 = assay: Growth inhibition of human A549 cells assessed as reduction in cell viability measured after 48 hrs by SRB assay; assay type: functional
TK-10 = assay: Growth inhibition of human TK-10 cells assessed as reduction in cell viability measured after 48 hrs by SRB assay; assay type: functional
NCI-H460 = assay: Growth inhibition of human NCI-H460 cells assessed as reduction in cell viability measured after 48 hrs by SRB assay; assay type: functional
[1] = target: Mitogen-activated protein kinase 8 (Homo sapiens, UniProt P45983); assay: Inhibition of human JNK1 at 10 uM in presence of ATP relative to control
Sequence of Mitogen-activated protein kinase 8 (P45983 whole entry): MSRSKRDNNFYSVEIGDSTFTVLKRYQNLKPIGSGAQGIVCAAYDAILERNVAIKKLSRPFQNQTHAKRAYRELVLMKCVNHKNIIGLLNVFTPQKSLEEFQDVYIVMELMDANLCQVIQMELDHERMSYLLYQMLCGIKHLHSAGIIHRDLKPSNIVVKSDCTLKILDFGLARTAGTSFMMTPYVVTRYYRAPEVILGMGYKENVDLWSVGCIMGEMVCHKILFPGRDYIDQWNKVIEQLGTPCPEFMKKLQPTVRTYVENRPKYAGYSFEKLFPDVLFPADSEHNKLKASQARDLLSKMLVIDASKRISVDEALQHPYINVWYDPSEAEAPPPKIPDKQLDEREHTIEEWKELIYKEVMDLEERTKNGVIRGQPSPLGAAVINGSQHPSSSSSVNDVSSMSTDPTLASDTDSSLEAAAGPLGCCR

BT-549 = assay: Growth inhibition of human BT-549 cells assessed as reduction in cell viability measured after 48 hrs by SRB assay; assay type: functional
[2] = target: Mitogen-activated protein kinase 10 (Homo sapiens, UniProt P53779); assay: Inhibition of human JNK3 at 10 uM in presence of ATP relative to control
Sequence of Mitogen-activated protein kinase 10 (P53779 whole entry): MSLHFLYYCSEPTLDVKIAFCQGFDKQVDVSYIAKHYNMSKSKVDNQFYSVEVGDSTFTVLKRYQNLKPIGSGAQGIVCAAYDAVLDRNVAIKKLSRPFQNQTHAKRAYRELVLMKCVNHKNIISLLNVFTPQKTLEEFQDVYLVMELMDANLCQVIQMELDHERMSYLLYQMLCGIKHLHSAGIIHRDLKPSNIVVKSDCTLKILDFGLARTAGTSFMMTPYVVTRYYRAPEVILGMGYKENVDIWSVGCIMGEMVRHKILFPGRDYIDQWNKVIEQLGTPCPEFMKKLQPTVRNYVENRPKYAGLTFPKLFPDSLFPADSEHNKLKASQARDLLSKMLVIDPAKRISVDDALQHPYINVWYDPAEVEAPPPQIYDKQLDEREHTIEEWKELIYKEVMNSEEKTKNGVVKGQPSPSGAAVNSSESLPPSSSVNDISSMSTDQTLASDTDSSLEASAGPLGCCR

MOLT-4 = assay: Growth inhibition of human MOLT-4 cells assessed as reduction in cell viability measured after 48 hrs by SRB assay; assay type: functional
T47D = assay: Growth inhibition of human T47D cells assessed as reduction in cell viability measured after 48 hrs by SRB assay; assay type: functional
NCI/ADR-RES = assay: Growth inhibition of human NCI/ADR-RES cells assessed as reduction in cell viability measured after 48 hrs by SRB assay; assay type: functional
[3] = target: Mitogen-activated protein kinase 9 (Homo sapiens, UniProt P45984); assay: Inhibition of human JNK2 at 10 uM in presence of ATP relative to control
Sequence of Mitogen-activated protein kinase 9 (P45984 whole entry, looked up): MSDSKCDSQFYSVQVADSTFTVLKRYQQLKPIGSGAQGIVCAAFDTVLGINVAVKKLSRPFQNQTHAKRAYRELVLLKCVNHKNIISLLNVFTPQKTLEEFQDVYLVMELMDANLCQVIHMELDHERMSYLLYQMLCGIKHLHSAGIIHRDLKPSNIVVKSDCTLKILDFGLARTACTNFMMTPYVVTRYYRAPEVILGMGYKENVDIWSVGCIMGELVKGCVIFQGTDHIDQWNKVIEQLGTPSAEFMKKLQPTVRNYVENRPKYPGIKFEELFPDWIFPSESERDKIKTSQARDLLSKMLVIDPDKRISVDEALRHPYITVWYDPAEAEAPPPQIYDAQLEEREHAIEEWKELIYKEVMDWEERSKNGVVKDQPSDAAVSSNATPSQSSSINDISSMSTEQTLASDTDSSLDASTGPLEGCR

LOX IMVI = assay: Growth inhibition of human LOX IMVI cells assessed as reduction in cell viability measured after 48 hrs by SRB assay; assay type: functional
NCI-H23 = assay: Growth inhibition of human NCI-H23 cells assessed as reduction in cell viability measured after 48 hrs by SRB assay; assay type: functional
A498 = assay: Growth inhibition of human A498 cells assessed as reduction in cell viability measured after 48 hrs by SRB assay; assay type: functional
SNB-75 = assay: Growth inhibition of human SNB-75 cells assessed as reduction in cell viability measured after 48 hrs by SRB assay; assay type: functional
SNB-19 = assay: Growth inhibition of human SNB-19 cells assessed as reduction in cell viability measured after 48 hrs by SRB assay; assay type: functional
Malme-3M = assay: Growth inhibition of human Malme-3M cells assessed as reduction in cell viability measured after 48 hrs by SRB assay; assay type: functional
MDA-MB-231 = assay: Growth inhibition of human MDA-MB-231 cells assessed as reduction in cell viability measured after 48 hrs by SRB assay; assay type: functional
UACC-62 = assay: Growth inhibition of human UACC-62 cells assessed as reduction in cell viability measured after 48 hrs by SRB assay; assay type: functional
MCF7 = assay: Growth inhibition of human MCF7 cells assessed as reduction in cell viability measured after 48 hrs by SRB assay; assay type: functional
CAKI-1 = assay: Growth inhibition of human CAKI-1 cells assessed as reduction in cell viability measured after 48 hrs by SRB assay; assay type: functional
SK-MEL-2 = assay: Growth inhibition of human SK-MEL-2 cells assessed as reduction in cell viability measured after 48 hrs by SRB assay; assay type: functional
HCT-15 = assay: Growth inhibition of human HCT-15 cells assessed as reduction in cell viability measured after 48 hrs by SRB assay; assay type: functional
HOP-62 = assay: Growth inhibition of human HOP-62 cells assessed as reduction in cell viability measured after 48 hrs by SRB assay; assay type: functional
HCT-116 = assay: Growth inhibition of human HCT-116 cells assessed as reduction in cell viability measured after 48 hrs by SRB assay; assay type: functional
OVCAR-5 = assay: Growth inhibition of human OVCAR-5 cells assessed as reduction in cell viability measured after 48 hrs by SRB assay; assay type: functional
SF-295 = assay: Growth inhibition of human SF-295 cells assessed as reduction in cell viability measured after 48 hrs by SRB assay; assay type: functional

Compound `CC(C)(C)n1cc(-c2ccnc(NCCCNS(=O)(=O)c3ccc(Cl)cc3)c2)c(-c2cccc(O)c2)n1` has a GI50 (M14) of 1720 nM, a GI50 (NCI-H322M) of 2460 nM and a GI50 (SW-620) of 1770 nM. The GI50 (RXF 393) was 1460 nM, the GI50 (KM12) was 2080 nM and the GI50 (ACHN) was 1970 nM. It also gave a GI50 (MDA-MB-468) of 1800 nM, a GI50 (OVCAR-4) of 1940 nM and a GI50 (HL-60(TB)) of 2510 nM. The GI50 (CCRF-CEM) was 2130 nM, the GI50 (UO-31) was 1890 nM and the GI50 (SN12C) was 1650 nM. The GI50 (SR) was 1750 nM, the GI50 (K562) was 1280 nM and the GI50 (786-0) was 2030 nM. The GI50 (Hs-578T) was 1840 nM, the GI50 (SF-268) was 2180 nM and the GI50 (HCC 2998) was 1760 nM. The GI50 (HT-29) was 1440 nM, the GI50 (OVCAR-8) was 2220 nM and the GI50 (A549) was 1970 nM. For the same compound, the GI50 (TK-10) was 2380 nM, the GI50 (NCI-H460) was 1940 nM and the inhibition [1] was 100%. The GI50 (BT-549) was 1670 nM, the inhibition [2] was 99.2% and the GI50 (MOLT-4) was 1910 nM. The GI50 (T47D) was 1820 nM, the GI50 (NCI/ADR-RES) was 1920 nM and the inhibition [3] was 98.9%. It also gave a GI50 (LOX IMVI) of 1730 nM, a GI50 (NCI-H23) of 1680 nM and a GI50 (A498) of 1510 nM. It also gave a GI50 (SNB-75) of 1370 nM, a GI50 (SNB-19) of 2180 nM and a GI50 (Malme-3M) of 1660 nM. It also gave a GI50 (MDA-MB-231) of 1870 nM, a GI50 (UACC-62) of 1650 nM and a GI50 (MCF7) of 1840 nM. The GI50 (CAKI-1) was 2060 nM, the GI50 (SK-MEL-2) was 1920 nM and the GI50 (HCT-15) was 1520 nM. For the same compound, the GI50 (HOP-62) was 1740 nM, the GI50 (HCT-116) was 1670 nM and the GI50 (OVCAR-5) was 1570 nM. The GI50 (SF-295) was 1790 nM.
For `CC(C)(C)n1cc(-c2ccnc(NCCCNS(=O)(=O)c3ccc(Br)cc3)c2)c(-c2cccc(O)c2)n1`, the GI50 (M14) was 1780 nM, the GI50 (NCI-H322M) was 2310 nM and the GI50 (SW-620) was 1830 nM. It also gave a GI50 (RXF 393) of 1460 nM, a GI50 (KM12) of 2110 nM and a GI50 (ACHN) of 1990 nM. It also gave a GI50 (MDA-MB-468) of 2100 nM, a GI50 (OVCAR-4) of 1910 nM and a GI50 (HL-60(TB)) of 2720 nM. It also gave a GI50 (CCRF-CEM) of 2260 nM, a GI50 (UO-31) of 1660 nM and a GI50 (SN12C) of 1610 nM. The GI50 (SR) was 2000 nM, the GI50 (K562) was 2020 nM and the GI50 (786-0) was 1660 nM. It also gave a GI50 (Hs-578T) of 2240 nM, a GI50 (SF-268) of 2400 nM and a GI50 (HCC 2998) of 1920 nM. For the same compound, the GI50 (HT-29) was 1420 nM, the GI50 (OVCAR-8) was 2430 nM and the GI50 (A549) was 2110 nM. It also gave a GI50 (TK-10) of 2510 nM, a GI50 (NCI-H460) of 1990 nM and an inhibition [1] of 98.8%. It also gave a GI50 (BT-549) of 1500 nM, an inhibition [2] of 99.2% and a GI50 (MOLT-4) of 2300 nM. The GI50 (T47D) was 2480 nM, the GI50 (NCI/ADR-RES) was 2210 nM and the inhibition [3] was 99.3%. For the same compound, the GI50 (LOX IMVI) was 1770 nM, the GI50 (NCI-H23) was 1830 nM and the GI50 (A498) was 1330 nM. For the same compound, the GI50 (SNB-75) was 1760 nM, the GI50 (SNB-19) was 2110 nM and the GI50 (Malme-3M) was 1670 nM. It also gave a GI50 (MDA-MB-231) of 1740 nM, a GI50 (UACC-62) of 1590 nM and a GI50 (MCF7) of 1880 nM. The GI50 (CAKI-1) was 2160 nM, the GI50 (SK-MEL-2) was 2130 nM and the GI50 (HCT-15) was 1480 nM. The GI50 (HOP-62) was 2050 nM, the GI50 (HCT-116) was 1310 nM and the GI50 (OVCAR-5) was 1870 nM. The GI50 (SF-295) was 1710 nM.
In the case of `O=C1c2ccccc2-c2n[nH]c3cccc1c23`, the GI50 (M14) is reported as 100000 nM, the GI50 (NCI-H322M) is reported as 25000 nM and the GI50 (SW-620) is reported as 10900 nM. It also gave a GI50 (RXF 393) of 20800 nM, a GI50 (KM12) of 2620 nM and a GI50 (ACHN) of 6640 nM. The GI50 (OVCAR-4) was 31900 nM, the GI50 (HL-60(TB)) was 42100 nM and the GI50 (CCRF-CEM) was 16000 nM. The GI50 (UO-31) was 10500 nM, the GI50 (SN12C) was 14800 nM and the GI50 (SR) was 13100 nM. For the same compound, the GI50 (K562) was 48600 nM, the GI50 (786-0) was 27100 nM and the GI50 (Hs-578T) was 55100 nM. The GI50 (SF-268) was 18400 nM, the GI50 (HCC 2998) was 9620 nM and the GI50 (HT-29) was 25900 nM. The GI50 (OVCAR-8) was 22000 nM, the GI50 (A549) was 14900 nM and the GI50 (TK-10) was 5930 nM. The GI50 (NCI-H460) was 9860 nM, the GI50 (BT-549) was 30800 nM and the GI50 (MOLT-4) was 20400 nM. The GI50 (T47D) was over 100000 nM, the GI50 (NCI/ADR-RES) was 22600 nM and the GI50 (NCI-H23) was 23800 nM. The GI50 (A498) was 7030 nM, the GI50 (SNB-75) was 16900 nM and the GI50 (SNB-19) was 50000 nM. It also gave a GI50 (Malme-3M) of 16400 nM, a GI50 (MDA-MB-231) of 65300 nM and a GI50 (UACC-62) of 14600 nM. For the same compound, the GI50 (MCF7) was 49000 nM, the GI50 (CAKI-1) was 3560 nM and the GI50 (SK-MEL-2) was 29000 nM. It also gave a GI50 (HCT-15) of 8040 nM, a GI50 (HOP-62) of 69300 nM and a GI50 (HCT-116) of 44600 nM. It also gave a GI50 (OVCAR-5) of 24400 nM and a GI50 (SF-295) of 22500 nM.
